Experimental data from US4843158A, “[2,2,1]Cryptand compounds that selectively bind sodium” (priority 1985, dated 1989).
pKd: −log10 of the molar value.

Columns and labels:
[1] = Cation binding titration, sodium (fluorescence and 19F NMR titrations); settings: for Cation Binding Constant (log k), Na+: 37° C.
Protocol: (§1) Fluorescence titrations: Ionic titrations of chelator fluorescence were performed on a Perkin Elmer 44E spectrofluorometer at a chelator concentration of 10 μM in 100 mM tris/acetic acid buffer at 37° C. Fluorescence emission from all of the chelators was monitored at a constant wavelength between 370 and 390 nm. The excitation spectra from 210 to 350 nm were recorded in the ratio mode and the proportion of M^n+ chelator complex was calculated from the fluorescence intensities at the most sensitive excitation wavelengths. The binding constants were estimated graphically from plots of log (bound/free) chelator against log free [M^n+ ]. (Slopes were 1.00±<0.05).
(§2) NMR titrations: Nmr spectra were recorded on Bruker WH 200 or Am 400 spectrometers at 188 or 376 MHz respectively at chelator concentrations between 5 and 10 mM in the same buffer as for fluorescence titrations but containing 20% D2 O at 37° C. The spectra were obtained with an acquisition time of 1.0 sec. and a 90° pulse and were processed with resolution enhancement (-0.5 of the observed line width) and appropriate gaussian sensitivity enhancement. The proportion of M^n+ -chelator complex was calculated from the integrals of the resolved free and bound chelator ^19 F resonances, or from the chemical shift of complexes in fast exchange. The apparent affinities were determined graphically as for the fluorescence data, but using a two step iteration from the affinity derived from the fluorescence data when the dissociation constant was close to the chelator concentration in the nmr titrations.

[2] = Cation binding titration, potassium (fluorescence and 19F NMR titrations); settings: 37° C.; from NMR
Protocol: as §1
as §2, with “The spectra were obtained with an acquisition time of 1.0 sec. and a 90° pulse and were processed with resolution enhancement (-0.5 of the observed line width) and appropriate gaussian sensitivity enhancement.” left out

[3] = Cation induced 19F NMR chemical shift, sodium; type: binding; design: key: fast exchange; slow exchange; settings: 37° C.
Protocol: as §2

[4] = Cation induced 19F NMR chemical shift, potassium; type: binding; design: key: fast exchange; slow exchange; settings: 37° C.
Protocol: as §2

[5] = type: binding; settings: tris/acetic acid buffer
Protocol: as §1

[6] = tested on: cellular function; type: cell-based
Protocol: (§3) Lymphocytes (1 ml packed cells) were prepared from pig mesenteric lymphnodes by standard procedure in RPM1 medium. The cells suspended in RPM1 (200 ml) were treated with the tetra-acetoxymethyl ester of Example 3 (4.5 mg) in DMSO (100 μl) and incubated at 37° C. for 1 hour. The cells were isolated by centrifugation and suspended in RPM1 (20 ml) in the spectrometer probe, with continuous dialysis against oxygenated medium and the data collected. The signal appeared after 3 hours and was collected for a further 3 hours.

[7] = tested on: Lymphocytes; experiment: Intracellular sodium by 19F NMR in pig mesenteric lymph node lymphocytes; type: cell-based
Protocol: as §3

[8] = Selectivity for sodium ions over potassium (and other) ions; type: binding

For `O=C(O)CN(CC(=O)O)c1ccc2c(c1)OCCN1CCOCCN(CCO2)c2ccc(F)cc2OCCOc2cc(F)ccc21` [Compound 7a], the “Cation Binding Constant (log k), Na+” value ([1]; from NMR) was 6, the “Cation Binding Constant (log k), K+” value [2] was 2.3 and the “Exchange (fast/slow), Na+” value [3] was “s”. The “Exchange (fast/slow), K+” value [4] was “f”.

For `O=C(O)CN(CC(=O)O)c1cccc(N2CCN3CCOc4ccc(N(CC(=O)O)CC(=O)O)cc4OCCN(CC2)c2ccc(F)cc2OCCOc2cc(F)ccc23)c1` [Compound 7d], the “Cation Binding Constant (log k), Na+” value ([1]; from NMR and from fluorescence at 370 nm) was 1.6, the “Cation Binding Constant (log k), H+” value [5] was 7.0 and the “Exchange (fast/slow), Na+” value [3] was “f”.

For `CC(=O)c1cc2c(cc1N(CC(=O)O)CC(=O)O)OCCN1CCN(c3cccc(N(CC(=O)O)CC(=O)O)c3)CCN(CCO2)c2ccc(F)cc2OCCOc2cc(F)ccc21` [Compound 8d], the “Cation Binding Constant (log k), Na+” value ([1]; from NMR) was 1.3 and the “Exchange (fast/slow), Na+” value [3] was “f”.

For `CC(=O)OCOC(=O)CN(CC(=O)OCOC(C)=O)c1cccc(N2CCN3CCOc4cc(C(C)=O)c(N(CC(=O)OCOC(C)=O)CC(=O)OCOC(C)=O)cc4OCCN(CC2)c2ccc(F)cc2OCCOc2cc(F)ccc23)c1` [Example 3], the pKd ([1]; read-out: dissociation constant of the sodium complex) was 1.40, the “adverse effect on cellular function” value [6] was “has not shown any adverse effect on cellular function” and the “19F chemical shift downfield from the standard” value ([7]; 37° C., standard 1,2-bis (2-amino-5-fluorophenoxy) ethane-N,N,N',N'-tetracetic acid) was 5.99 ppm. The “intracellular sodium ion concentration indicated” value ([7]; from 19F chemical shift) was “about 13 mM” and the “selectivity for sodium ions (in words)” value [8] was “high selectivity for sodium over all other ions and in particular over potassium”.
